{
  "source": "patent US20020173640A1",
  "about": "“ADAM polynucleotides, polypeptides, and antibodies” (Human Genome Sciences, Inc., priority 1999, published 2002)",
  "key": {"[1]": {"tested_on": "protease inhibitor-resistant viruses", "settings": "cited from earlier work"}, "[2]": {"tested_on": "lamivudine-resistant isolates", "settings": "cited from earlier work"}, "M24 cells": {"tested_on": "M24 cells", "settings": "murine metastasis model; cited from earlier work"}, "[3]": {"tested_on": "human metastatic melanoma (M24 cells)", "settings": "cited from earlier work"}, "[4]": {"tested_on": "alpha-2-macroglobulin (α2-M)", "assay": "Cleavage of α2-M by hADAM-19", "type": "biochemical, Bovine", "settings": "37° C.; new bands of 105 kDa and 72 kDa; dose-dependent", "protocol": "The time course of hydrolysis of α2-M by hADAM-19 was examined. Ten μl of purified hADAM-19 (50 μg/ml) were mixed with 23.8 μl α2-M (0.2 unit)ml) in 66.24 μl 1× assay buffer (50 mM HEPES, pH 7.5, 0.2 M NaCl, 10 mM CaCl2, 25 μM ZnCl2 and 0.05% Brij-35) and incubated at 37° C. for 1-5 days. Trypsin was used as a positive control. The molar ratios between α2-M and hADAM-19 or trypsin were from 1:1 to 5:1. The samples were collected and boiled in SDS-PAGE sample buffer containing 5% 2-mercaptoethanol for 5-min, then loaded onto an 8% SDS-polyacrylamide gel. After electrophoresis the proteins were visualized by silver staining method."}, "[5]": {"tested_on": "rat tail tendon type I gelatin", "assay": "Substrate specificity: gelatin", "type": "biochemical", "protocol": "(§1) The following assay(s) are useful in determining the presence of protease activity. Gelatin and casein zymography are performed essentially as described (Heusen et al., Anal. Biochem., 102:196-202 (1980); Wilson et al., Journal of Urology, 149:653-658 (1993)). Samples are run on 10% polyacryamide/0.1% SDS gels containing 1% gelain orcasein, soaked in 2.5% triton at room temperature for 1 hour, and in 0.1M glycine, pH 8.3 at 37° C. 5 to 16 hours. After staining in amido black areas of proteolysis apear as clear areas agains the blue-black background. Trypsin (Sigma T8642) is used as a positive control."}, "[6]": {"tested_on": "alpha-2-macroglobulin (α2-M)", "assay": "Complex formation between hADAM-19 and α2-M (Western blot, anti-Flag)", "type": "binding, Bovine", "settings": "37° C. for 16 h; Western blot with anti-Flag Ab", "protocol": "Complex Formation Between hADAM-19 and α2-M Human ADAM-19 transient transfected supernatant was concentrated by about 10-fold in a 0.4 ml Ultrafree MC filter unit (Low Binding Regenerated Cellulose membrane, MW cutoff 10 kDa) from Millipore. 40 μl of the concentrated sample were mixed with TBSZ buffer (50 mM Tris.HCl, 150 mM NaCl, 5 μM ZnCl2) with or without α2-M protein (Roche Molecular Biochemicals, final concentration, 1 unit/ml) in a total 50 μl reaction volume and incubated at 37° C. for 16 h. The samples were boiled in Lamini sample buffer and loaded on a 4-12% percent Tris-Giycine gel. In the case of purified hADAM-19 protein, one to 10 μl of purified protein were incubated with α2-M protein in TBSZ buffer in a total of 50 μl reaction volume and incubated at 37° C. for 16 h. Anti-Flag M2 antibody (Ab), at 1 μg/ml concentration (Sigma), was used as primary Ab. Peroxidase-labelled goat anti-mouse Ab from Amersham Pharmacia Biotech was used as secondary Ab at 1:2000 dilution."}, "bovine casein": {"tested_on": "bovine casein", "assay": "Substrate specificity: casein", "type": "biochemical", "protocol": "as §1"}, "alpha-2 macroglobulin": {"tested_on": "alpha-2 macroglobulin", "assay": "metal-dependant proteolysis of alpha-2 macroglobulin", "type": "biochemical", "settings": "see Example 19"}},
  "data": [
    {"molecule": "Cc1ccccc1CNC(=O)[C@H]1N(C(=O)[C@@H](O)[C@H](Cc2ccccc2)NC(=O)c2cccc(O)c2C)CSC1(C)C", "note": "[AG-1776]", "values": [
      {"measurement": "in vitro activity against protease inhibitor-resistant viruses", "setting": "[1]", "result": "in vitro activity against protease inhibitor-resistant viruses"}
    ]},
    {"molecule": "Nc1ccn([C@H]2CO[C@@H](CO)S2)c(=O)n1", "note": "[dOTC]", "values": [
      {"measurement": "activity against lamivudine-resistant isolates", "setting": "[2]", "result": "retains activity against a substantial proportion of lamivudine-resistant isolates"}
    ]},
    {"molecule": "contortrostatin", "values": [
      {"measurement": "inhibition of lung colonization of M24 cells", "setting": "M24 cells", "result": "inhibits lung colonization"},
      {"measurement": "inhibition of M24 cell adhesion to laminin", "setting": "[3]", "result": "not laminin"},
      {"measurement": "inhibition of M24 cell adhesion to type I collagen, vitronectin, and fibronection", "setting": "[3]", "result": "inhibit"}
    ]},
    {"molecule": "hADAM-19: Flag-tagged hADAM-19 protein (residues 26-701 of SEQ ID NO: 9) purified from transfected 293T cells (protein, listed as Homo sapiens, Flag tag) REPGWTRGSEEGSPKLQHELIIPQWKTSESPVREKHPLKAELRVMAEGRELILDLEKNEQLFAPSYTETHYTSSGNPQTTTRKLEDHCFYHGTVRETELSSVTLSTCRGIRGLITVSSNLSYVIEPLPDSKGQHLIYRSEHLKPPPGNCGFEHSKPTTRDWALQFTQQTKKRPRRMKREDLNSMKYVELYLVADYLEFQKNRRDQDATKHKLIEIANYVDKFYRSLNIRIALVGLEVWTHGNMCEVSENPYSTLWSFLSWRRKLLAQKYHDNAQLITGMSFHGTTIGLAPLMAMCSVYQSGGVNMDHSENAIGVAATMAHEMGHNFGMTHDSADCCSASAADGGCIMAAATGHPFPKVFNGCNRRELDRYLQSGGGMCLSNMPDTRMLYGGRRCGNGYLEDGEECDCGEEEECNNPCCNASNCTLRPGAECAHGSCCHQCKLLAPGTLCREQARQCDLPEFCTGKSPHCPTNFYQMDGTPCEGGQAYCYNGMCLTYQEQCQQLWGPGARPAPDLCFEKVNVAGDTFGNCGKDMNGEHRKCNMRDAKCGKIQCQSSEARPLESNAVPIDTTIIMNGRQIQCRGTHVYRGPEEEGDMLDPGLVMTGTKCGYNHICFEGQCRNTSFFETEGCGKKCNGHGVCNNNQNCHCLPGWAPPFCNTPGHGGSIDSGPMPPESVG", "values": [
      {"measurement": "cleavage of α2-M", "setting": "[4]", "result": "cleaved α2-M"},
      {"measurement": "dissolution of rat tail tendon type I gelatin", "setting": "[5]", "result": "not dissolved"},
      {"measurement": "complex formation with α2-M", "setting": "[6]", "result": "formed a complex of 170 kDa band with α2-M"},
      {"measurement": "dissolution of bovine casein", "setting": "bovine casein", "result": "not dissolved"}
    ]},
    {"molecule": "Gene NO: 1: human ADAM polypeptide encoded by cDNA clone HDPDH32, homologous to murine metalloproteinase-disintegrin meltrin beta (protein, listed as Homo sapiens) MPGGAGAARLCLLAFALQPLRPRAAREPGWTRGSEEGSPKLQHELIIPQWKTSESPVREKHPLKAELRVMAEGRELILDLEKNEQLFAPSYTETHYTSSGNPQTTTRKLEDHCFYHGTVRETELSSVTLSTCRGIRGLITVSSNLSYVIEPLPDSKGQHLIYRSEHLKPPPGNCGFEHSKPTTRDWALQFTQQTKKRPRRMKREDLNSMKYVELYLVADYLEFQKNRRDQDATKHKLIEIANYVDKFYRSLNIRIALVGLEVWTHGNMCEVSENPYSTLWSFLSWRRKLLAQKYHDNAQLITGMSFHGTTIGLAPLMAMCSVYQSGGVNMDHSENAIGVAATMAHEMGHNFGMTHDSADCCSASAADGGCIMAAATGHPFPKVFNGCNRRELDRYLQSGGGMCLSNMPDTRMLYGGRRCGNGYLEDGEECDCGEEEECNNPCCNASNCTLRPGAECAHGSCCHQCKLLAPGTLCREQARQCDLPEFCTGKSPHCPTNFYQMDGTPCEGGQAYCYNGMCLTYQEQCQQLWGPGARPAPDLCFEKVNVAGDTFGNCGKDMNGEHRKCNMRDAKCGKIQCQSSEARPLESNAVPIDTTIIMNGRQIQCRGTHVYRGPEEEGDMLDPGLVMTGTKCGYNHICFEGQCRNTSFFETEGCGKKCNGHGVCNNNQNCHCLPGWAPPFCNTPGHGGSIDSGPMPPESVGPVVAGVLVAILVLAVLMLMYYCCRQNNKLGQLKPSALPSKLRQQFSCPFRVSQNSGTGHANPTFKLQTPQGKRKVINTPEILRKPSQPPPRPPPDYLRGGSPPAPLPAHLSRAARNSPGPGSQIERTESSRRPPPSRPIPPAPNCIVSQDFSRPRPPQKALPANPVPGRRSLPRPGGASPLRPPGAGPQQSRPLAALAPKFPEYRSQRAGGMISSKI", "values": [
      {"measurement": "metal-dependant proteolysis of alpha-2 macroglobulin", "setting": "alpha-2 macroglobulin", "result": "displayed metal-dependant proteolysis of alpha-2 macroglobulin"}
    ]}
  ]
}
